Test results taken from the supplement of paper PMC11061612.

What was measured:
Alisertib = compound: COc1cc(Nc2ncc3c(n2)-c2ccc(Cl)cc2C(c2c(F)cccc2OC)=NC3)ccc1C(=O)O [Alisertib]; conditions: max 10 µM
Summary of the method: (§1)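 Cancer cell lines were dosed for 72 hours (final DMSO typically 0.2%) after 24 hours at 37°C and 5% CO2 in 1536-well plates containing 7.5 μl DMEM/F12 or RPMI with 10% FBS. Viability came from CellTiter-Glo 2.0 luminescence, scaled between blank-well and DMSO-well means, and dose responses were fitted to a two-parameter logistic curve with a non-linear mixed effects model. The single-agent IC50 was obtained from this fit.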

SN-38 = compound: CCc1c2c(nc3ccc(O)cc13)-c1cc3c(c(=O)n1C2)COC(=O)[C@]3(O)CC [SN-38]; conditions: max 0.3 µM
Summary of the method: as §1

Taselisib = compound: Cc1nc(-c2cn3c(n2)-c2ccc(-c4cnn(C(C)(C)C(N)=O)c4)cc2OCC3)n(C(C)C)n1 [Taselisib]; conditions: max 10 µM
Summary of the method: as §1

Olaparib = compound: O=C(c1cc(Cc2n[nH]c(=O)c3ccccc23)ccc1F)N1CCN(C(=O)C2CC2)CC1 [Olaparib]; conditions: max 10 µM
Summary of the method: as §1

Doxorubicin = compound: COc1cccc2c1C(=O)c1c(O)c3c(c(O)c1C2=O)C[C@@](O)(C(=O)CO)C[C@@H]3O[C@H]1C[C@H](N)[C@H](O)[C@H](C)O1 [Doxorubicin]; conditions: max 1 µM
Summary of the method: as §1

Savolitinib = compound: C[C@@H](c1ccc2nccn2c1)n1nnc2ncc(-c3cnn(C)c3)nc21 [Savolitinib]; conditions: max 1 µM
Summary of the method: as §1

AZD7648 = compound: Cc1cc2ncnn2cc1Nc1ncc2c(n1)n(C1CCOCC1)c(=O)n2C [AZD7648]; conditions: max 10 µM
Summary of the method: as §1

AZD0156 = compound: CN(C)CCCOc1ccc(-c2ccc3ncc4c(c3c2)n(C2CCOCC2)c(=O)n4C)cn1 [AZD0156]; conditions: max 3 µM
Summary of the method: as §1

Dasatinib = compound: CC1=C(C(=CC=C1)Cl)NC(=O)C2=CN=C(S2)NC3=CC(=NC(=N3)C)N4CCN(CC4)CCO [Dasatinib]; conditions: max 2 µM
Summary of the method: as §1

Capivasertib = compound: C1CN(CCC1(C(=O)N[C@@H](CCO)C2=CC=C(C=C2)Cl)N)C3=NC=NC4=C3C=CN4 [Capivasertib]; conditions: max 10 µM
Summary of the method: as §1

AZD5991 = compound: Cc1c2c(nn1C)CSCc1cc(n(C)n1)CSc1cc(c3ccccc3c1)OCCCc1c(C(=O)O)n(C)c3c-2c(Cl)ccc13 [AZD5991]; conditions: max 1 µM
Summary of the method: as §1

AZD6738 = compound: C[C@@H]1COCCN1C2=NC(=NC(=C2)C3(CC3)[S@](=N)(=O)C)C4=C5C=CNC5=NC=C4 [AZD6738]; conditions: max 10 µM
Summary of the method: as §1

AZD1775 = compound: C=CCn1c(=O)c2cnc(Nc3ccc(N4CCN(C)CC4)cc3)nc2n1-c1cccc(C(C)(C)O)n1 [AZD1775]; conditions: max 3 µM
Summary of the method: as §1

Lapatinib = compound: CS(=O)(=O)CCNCc1ccc(-c2ccc3ncnc(Nc4ccc(OCc5cccc(F)c5)c(Cl)c4)c3c2)o1 [Lapatinib]; conditions: max 10 µM
Summary of the method: as §1

Palbociclib = compound: CC(=O)c1c(C)c2cnc(Nc3ccc(N4CCNCC4)cn3)nc2n(C2CCCC2)c1=O [Palbociclib]; conditions: max 10 µM
Summary of the method: as §1

AZD1390 = compound: CC(C)n1c(=O)n(C)c2cnc3cc(F)c(-c4ccc(OCCCN5CCCCC5)nc4)cc3c21 [AZD1390]; conditions: max 0.3 µM
Summary of the method: as §1

Prexasertib = compound: COc1cccc(OCCCN)c1-c1cc(Nc2cnc(C#N)cn2)n[nH]1 [Prexasertib]; conditions: max 1 µM
Summary of the method: as §1

Gefitinib = compound: COc1cc2ncnc(Nc3ccc(F)c(Cl)c3)c2cc1OCCCN1CCOCC1 [Gefitinib]; conditions: max 10 µM
Summary of the method: as §1

SG3199 = compound: CC1=CN2[C@@H](C1)C=NC3=CC(=C(C=C3C2=O)OC)OCCCCCOC4=C(C=C5C(=C4)N=C[C@@H]6CC(=CN6C5=O)C)OC [SG3199]; conditions: max 0.001 µM
Summary of the method: as §1

Trametinib = compound: CC(=O)Nc1cccc(-n2c(=O)n(C3CC3)c(=O)c3c(Nc4ccc(I)cc4F)n(C)c(=O)c(C)c32)c1 [Trametinib]; conditions: max 1 µM
Summary of the method: as §1

AZD4320 = compound: CN(CC[C@H](CSC1=CC=CC=C1)NC2=C(C=C(C=C2)S(=O)(=O)NC(=O)C3=CC=C(C=C3)N4CCC(CC4)[C@H](C5=CC=CC=C5C6=CC=C(C=C6)Cl)O)S(=O)(=O)C(F)(F)F)CCO [AZD4320]; conditions: max 1 µM
Summary of the method: as §1

AZD8186 = compound: C[C@@H](Nc1cc(F)cc(F)c1)c1cc(C(=O)N(C)C)cc2c(=O)cc(N3CCOCC3)oc12 [AZD8186]; conditions: max 3 µM
Summary of the method: as §1

Venetoclax = compound: CC1(C)CCC(CN2CCN(c3ccc(C(=O)NS(=O)(=O)c4ccc(NCC5CCOCC5)c([N+](=O)[O-])c4)c(Oc4cnc5[nH]ccc5c4)c3)CC2)=C(c2ccc(Cl)cc2)C1 [Venetoclax]; conditions: max 1 µM
Summary of the method: as §1

AZD5153 = compound: COc1nnc2ccc(N3CCC(c4ccc(OCCN5CCN(C)C(=O)[C@H]5C)cc4)CC3)nn12 [AZD5153]; conditions: max 1 µM
Summary of the method: as §1

Selumetinib = compound: Cn1cnc2c(F)c(Nc3ccc(Br)cc3Cl)c(C(=O)NOCCO)cc21 [Selumetinib]; conditions: max 10 µM
Summary of the method: as §1

Crizotinib = compound: C[C@@H](Oc1cc(-c2cnn(C3CCNCC3)c2)cnc1N)c1c(Cl)ccc(F)c1Cl [Crizotinib]; conditions: max 10 µM
Summary of the method: as §1

AZD2811 = compound: CCN(CCO)CCCOc1ccc2c(Nc3cc(CC(=O)Nc4cccc(F)c4)[nH]n3)ncnc2c1 [AZD2811]; conditions: max 1 µM
Summary of the method: as §1

Cell Line	IC50, cell viability 72 h (Alisertib)	IC50, cell viability 72 h (SN-38)	IC50, cell viability 72 h (Taselisib)	IC50, cell viability 72 h (Olaparib)	IC50, cell viability 72 h (Doxorubicin)	IC50, cell viability 72 h (Savolitinib)	IC50, cell viability 72 h (AZD7648)	IC50, cell viability 72 h (AZD0156)	IC50, cell viability 72 h (Dasatinib)	IC50, cell viability 72 h (Capivasertib)	IC50, cell viability 72 h (AZD5991)	IC50, cell viability 72 h (AZD6738)	IC50, cell viability 72 h (AZD1775)	IC50, cell viability 72 h (Lapatinib)	IC50, cell viability 72 h (Palbociclib)	IC50, cell viability 72 h (AZD1390)	IC50, cell viability 72 h (Prexasertib)	IC50, cell viability 72 h (Gefitinib)	IC50, cell viability 72 h (SG3199)	IC50, cell viability 72 h (Trametinib)	IC50, cell viability 72 h (AZD4320)	IC50, cell viability 72 h (AZD8186)	IC50, cell viability 72 h (Venetoclax)	IC50, cell viability 72 h (AZD5153)	IC50, cell viability 72 h (Selumetinib)	IC50, cell viability 72 h (Crizotinib)	IC50, cell viability 72 h (AZD2811)
TOV-21G (Ovarian Carcinoma)	2.95 µM	0.148 µM	6.23 µM	> 10 µM	> 1 µM	> 1 µM	> 10 µM	> 3 µM	0.139 µM	1.55 µM	> 1 µM	3.65 µM	0.754 µM	> 10 µM	> 10 µM	> 0.3 µM	0.299 µM	> 10 µM	> 0.001 µM	> 1 µM	> 1 µM	> 3 µM	> 1 µM	0.334 µM	> 10 µM	9.3 µM	> 1 µM
ATN-1 (T-Lymphoblastic Leukemia)	0.0401 µM	0.00553 µM	0.083 µM	> 10 µM	0.0454 µM	> 1 µM	> 10 µM	> 3 µM	1.7 µM	2.02 µM	0.109 µM	0.664 µM	0.0601 µM	> 10 µM	5.84 µM	> 0.3 µM	0.00209 µM	> 10 µM	> 0.001 µM	> 1 µM	0.13 µM	2.2 µM	> 1 µM	0.482 µM	> 10 µM	1.41 µM	0.0188 µM
HT-1197 (Bladder Carcinoma)	> 10 µM	> 0.3 µM	2.89 µM	> 10 µM	> 1 µM	> 1 µM	> 10 µM	> 3 µM	> 2 µM	> 10 µM	> 1 µM	> 10 µM	2.15 µM	> 10 µM	> 10 µM	> 0.3 µM	> 1 µM	> 10 µM	> 0.001 µM	> 1 µM	> 1 µM	> 3 µM	> 1 µM	0.697 µM	> 10 µM	> 10 µM	> 1 µM
GRANTA-519 (B-Cell Non-Hodgkin's Lymphoma)	> 10 µM	0.00406 µM	> 10 µM	> 10 µM	0.869 µM	> 1 µM	> 10 µM	> 3 µM	> 2 µM	> 10 µM	> 1 µM	1.95 µM	0.55 µM	> 10 µM	> 10 µM	> 0.3 µM	0.0174 µM	> 10 µM	> 0.001 µM	> 1 µM	–	> 3 µM	> 1 µM	> 1 µM	> 10 µM	> 10 µM	> 1 µM
